Measurements taken from patent publication US12037343B2, “Process for the preparation of sodium (2r,5s,13ar)-7,9-dioxo-10-((2,4,6,-trifluorobenzyl)carbamoyl)-2,3,4,5,7,9,13,13A-octahydro-2,5-methanopyrido[1′,2′:4,5]pyrazino[2,1-B] [1,3] oxazepin-8-olate and its polymorphic form” (Honour Lab Limited, priority 2018, dated 2024).
Like-named read-outs stand apart in the source and are kept apart here.

Assay type: physicochemical
Experimental: The stability of sample was tested by storing the samples at 40° C./75% relative humidity (RH) and 25° C./60% RH for 6 months. The stability of samples was tested by PXRD, HPLC and water content was measured by Karl Fischer method.

stability (PXRD pattern, water content, purity after storage): physically and chemically stable | Physical form (as assessed by PXRD) (4 month, 25° C./60% RH): Crystalline | Purity by HPLC (4 month, 25° C./60% RH): 99.78% | Water content by Karl Fischer method (4 month, 25° C./60% RH): 3.7% | Physical form (as assessed by PXRD) (4 month, 40° C./75% RH): Crystalline | Purity by HPLC (4 month, 40° C./75% RH): 99.78% | Water content by Karl Fischer method (4 month, 40° C./75% RH): 3.6% | Physical form (as assessed by PXRD) (5 month, 25° C./60% RH): Crystalline | Purity by HPLC (5 month, 25° C./60% RH): 99.78% | Water content by Karl Fischer method (5 month, 25° C./60% RH): 3.9% | Physical form (as assessed by PXRD) (5 month, 40° C./75% RH): Crystalline | Purity by HPLC (5 month, 40° C./75% RH): 99.77% | Water content by Karl Fischer method (5 month, 40° C./75% RH): 3.9% | Physical form (as assessed by PXRD) (6 month, 25° C./60% RH): Crystalline | Purity by HPLC (6 month, 25° C./60% RH): 99.78% | Water content by Karl Fischer method (6 month, 25° C./60% RH): 3.8% | Physical form (as assessed by PXRD) (6 month, 40° C./75% RH): Crystalline | Purity by HPLC (6 month, 40° C./75% RH): 99.78% | Water content by Karl Fischer method (6 month, 40° C./75% RH): 3.8% | Physical form (as assessed by PXRD) (Initial): Crystalline | Purity by HPLC (Initial): 99.82% | Water content by Karl Fischer method (Initial): 4.2%
SMILES: O=C(NCc1c(F)cc(F)cc1F)c1cn2c(c(O)c1=O)C(=O)N1[C@H]3CC[C@H](C3)O[C@@H]1C2 [Form HN-1, sodium (2R,5S,13aR)-7,9-dioxo-10-((2,4,6-trifluorobenzyl)carbamoyl)-2,3,4,5,7,9,13,13a-octahydro-2,5-methanopyrido [1′,2′:4,5]pyrazino[2,1-b][1,3] oxazepin-8-olate]
